The nature of series [1]: pKa of the organic compound. The format is physicochemical. The settings on record: average of plural pKa values. An excerpt: The pKa of the organic compound can be determined by a neutralization titration method (Kagaku Binran Kiso-hen I and II (Handbook of Chemistry, basic I and II) (Ver. 4) edited by The Chemical Society of Japan, Maruzen Publishing, 1993). […] When the organic compound has a single pKa value, the value is employed as the pKa of the organic compound.

In series [2] the target is T1, FTH ferritin (Homo sapiens, UniProt P02794).
T1 construct: made in house; host or cells: Escherichia coli BL21 (DE3), plasmid pET20-FTH
T1 sequence (P02794 whole entry): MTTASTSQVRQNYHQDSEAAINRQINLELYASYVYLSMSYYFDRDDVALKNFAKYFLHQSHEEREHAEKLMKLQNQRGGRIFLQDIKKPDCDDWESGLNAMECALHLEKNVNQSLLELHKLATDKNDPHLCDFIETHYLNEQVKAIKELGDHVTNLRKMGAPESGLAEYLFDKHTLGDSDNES
As to the kind of experiment: disassembly-reassembly process incorporation of DOX into FTH ferritin. The series is classed as physicochemical. The settings on record: standing 15 minutes, DOX 0.2 mg/L. As for the experimental part:
Then, 10 μL of 1M Tris-HCl buffer (pH 9.0) was added for neutralization, and the resulting solution was left to stand for 5 to 120 minutes at room temperature. After the standing, 0.5 mL of water was added to the resulting solution. After the resulting solution was centrifuged (at 15,000 rpm for one minute), the supernatant was injected into the desalting column PD-10 (Sephadex G-25 filled product, GE Healthcare Inc.) equilibrated with 10 mM Tris-HCl buffer (pH 8) to separate the protein from a reagent that was not encapsulated. Whole amount (3.5 mL) of the resulting solution was concentrated to 0.1 mL by centrifugal ultrafiltration using Vivaspin 20-100K (GE Healthcare Inc.), and then the absorbances at 280 nm and 480 nm were measured using spectrophotometer (DU-800, Beckman Coulter Inc.).

Series [3] concerns the target T2, HER2a-FTH ferritin (Homo sapiens, UniProt P02794).
T2 construct: pET20-FTH carrying a DNA encoding a human-derived ferritin H chain monomer as a template; made in house; host or cells: Escherichia coli BL21 (DE3), plasmid pET20-HER2a-FTH
Put plainly: one-step incorporation of DOX into HER2a-FTH ferritin. The format is physicochemical. As to conditions: pH 9, 50° C., 60 minutes, DOX 0.3 mg/L. As for the experimental part:
First, PCR was carried out using pET20-FTH carrying a DNA encoding a human-derived ferritin H chain monomer as a template as well as the following primers: 5′-[…]-3′(SEQ ID NO: 15) and 5′-[…]-3′(SEQ ID NO: 16) in order to obtain a DNA encoding the human-derived ferritin H chain (HER2a-FTH) monomer in which a cancer recognition peptide (HER2a: MARSGL (SEQ ID NO: 14); M Houimel et al., Int. J. Cancer 92, 748-755. (2001) which is incorporated herein by reference in its entirety) is inserted and fused at the N-terminus of the ferritin monomer. The resulting PCR products were purified using Wizard DNA Clean-Up System (Promega Corporation), and then treated with restriction enzymes, Dpnl and Ndel (Takara Bio Inc.) for self-ligation in order to construct an expression plasmid (pET20-HER2a-FTH) carrying a gene encoding HER2a-FTH. […]
(§1) DOX was mixed with 1 mL of 50 mM Tris-HCl buffer (pH 9) that contains each mutate ferritin at a final concentration of 1 mg/mL, to achieve a final concentration of 0.3 mg/L, and then the resulting solutions were left to stand at 50° C. for 60 minutes. […] The concentration of contained protein was determined using the protein assay CBB solution (Nacalai Tesque, Inc.) as well as bovine albumin as a standard. The DOX concentration was determined based on analysis of the absorbance at 480 nm.

Series [4] has as its target T3, FTH-U2AF ferritin (Homo sapiens, UniProt P02794).
T3 construct: pET20-FTH carrying a DNA encoding a human-derived ferritin H chain monomer as a template; made in house; host or cells: Escherichia coli BL21 (DE3), plasmid pET20-FTH-U2AF
Put plainly: one-step incorporation of DOX into FTH-U2AF ferritin. The format is physicochemical. As to conditions: pH 9, 50° C., 60 minutes, DOX 0.3 mg/L. As for the experimental part:
PCR was carried out using pET20-FTH carrying a DNA encoding a human-derived ferritin H chain monomer as a template as well as the following primers: 5′-[…]-3′ (SEQ ID NO: 18) and 5′-[…]-3′ (SEQ ID NO: 13), in order to obtain a DNA encoding the human-derived ferritin H chain (FTH-U2AF) in which an RNA recognition peptide (U2AF: TRQARR (SEQ ID NO: 17) R Tan and AD Frankel, Proc Natl Acad Sci USA 92, 5282-5286. (1995) which in incorporated herein by reference in its entirety)) is inserted and fused at the C-terminus of the ferritin monomer. The resulting PCR products were purified using Wizard DNA Clean-Up System (Promega Corporation), and then treated with restriction enzymes, DpnI and NdeI (Takara Bio Inc.) for self-ligation in order to construct an expression plasmid (pET20-FTH-U2AF) carrying a gene encoding FTH-U2AF monomer. […]
as §1

The conditions of series [5]: cited from earlier work.

Structures can show the parent of a compound that is named as a salt. Where two headings read alike, the source gives them in different places.

We go through one molecule from patent US20210253651A1, “METHOD FOR PRODUCING ORGANIC COMPOUND-ENCAPSULATING FERRITIN” (Ajinomoto Co., Inc., priority 2018, published 2021).

T3 sequence (P02794 with tags, fused parts or gaps): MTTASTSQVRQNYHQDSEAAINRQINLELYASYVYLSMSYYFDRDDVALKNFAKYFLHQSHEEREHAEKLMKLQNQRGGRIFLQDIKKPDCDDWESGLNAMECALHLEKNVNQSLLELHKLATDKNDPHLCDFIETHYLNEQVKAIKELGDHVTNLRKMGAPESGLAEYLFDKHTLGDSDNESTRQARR
T2 sequence (P02794 with tags, fused parts or gaps limits assumed): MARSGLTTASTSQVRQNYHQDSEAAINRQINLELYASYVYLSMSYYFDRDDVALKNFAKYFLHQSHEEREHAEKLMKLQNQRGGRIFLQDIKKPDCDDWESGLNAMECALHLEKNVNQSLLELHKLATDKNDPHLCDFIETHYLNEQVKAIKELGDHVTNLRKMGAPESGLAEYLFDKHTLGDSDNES

As usually defined, the pKa is the pH at which an ionisable group is half protonated. `COc1cccc2c1C(=O)c1c(O)c3c(c(O)c1C2=O)C[C@@](O)(C(=O)CO)C[C@@H]3OC1CC(N)C(O)C(C)O1` (stereo partly shown) [DOX, Doxorubicin hydrochloride]: the pKa in series [1] is 8.42; in series [5] (second pKa value) it was 8.46; in series [5] (single or first pKa value), 7.34; in series [5] (third printed pKa value) it was 9.46. For the same molecule, the “highest incorporation efficiency of the reagent” value in series [2] is 2 % (wt). Besides, the “incorporation efficiency of the reagent” value in series [3] was 14.6 % (wt); in series [4] it was 17.9 % (wt).
